Data reported in publication PMC6927413 (Chemical Communications (Cambridge, England), 2019).
“Also recorded” adds a separate entry of the source. Where two headings read alike, the source gives them in different places.

Tests used:
[1] = target: T1, wt-psBBOX (Pseudomonas sp., UniProt P80193); conditions: 2 μM psBBOX, 50 μM metal, 50 mM HEPES pH 7.5; for Tm Shift: relative to protein without metal
Description: psBBOX Differential Scanning Fluorimetry (DSF) assays
See also Supplementary Figure S5. […]
concentration 50 μM). Controls contained 10 μL of buffer instead of metal solution. 2 mL of master mix was prepared by mixing 1.25 mL stock of sypro orange (made by diluting 1 μL of […]
and 739 μl of 50 mM HEPES pH 7.5. […]
μL. Metal solutions were made freshly. Experiments was carried out in triplicate.
DSF was performed using a MiniOpticon Real-Time PCR Detection System (Bio-Rad), monitoring protein unfolding using SYPRO orange (Invitrogen) according to reported […]
nm) filters were used for excitation and the emission, respectively. Reaction mixtures contained: 2 μM protein, 50 μM metal and 1 × SYPRO orange (final volume 50 μL). Reagents were prepared in 50 mM HEPES buffer pH 7.5. Iron solution was prepared shortly before […]
temperature increased linearly by 1 °C per minute.
The inflection point, representing Tm, was calculated by fitting the Boltzmann equation to the sigmoidal curves obtained; data were processed using GraphPad Prism 5.0. The Tm shift caused by the addition of small molecules/fragments was determined by subtraction of the “reference” Tm (protein without metal) from the Tm obtained in the presence of the metal.

[2] = system: BBOX; parameters: method as in earlier work; conditions: 2OG-competing, metal-chelating BBOX inhibitor; cited from earlier work
[3] = target: T2, psBBOX (Pseudomonas sp., UniProt P80193); conditions: reported GBB substrate analogues, hydroxylated to L-carnitine analogues; cited from earlier work
T2 construct: N-terminal hexa-His tag (pCOLD I vector); printed for the Y201C variant, inferred for wild type from the pCOLD template (N); made in house; host or cells: Escherichia coli

[4] = target: T3, psBBOX-Y201C-BFA (psBBOX*) (Pseudomonas sp., UniProt P80193, Y201C); assay: 1H NMR inhibition assay of psBBOX-Y201C-BFA (psBBOX*) catalysed GBB turnover; assay type: biochemical, Pseudomonas sp. AK1
T3 construct: hexa-His tag (pCOLDI) (N); made in house; host or cells: E. coli BL21 (DE3)
Description: (§1) in 20 mM HCl in D2O), 200 μM GBB (Cl- salt), 600 μM 2OG, in Tris-d11 (pH 7.5 in H 2O).
(§2) 2OG, in phosphate buffer (50 mM, pH 7.1, pD 7.5, in D2O). […]
([(NH4)2Fe(SO4)2.6H2O] in 20mM HCl in D2O), 600 μM 2OG, 500 μM L-ascorbate (di-sodium salt), in Tris-d11 ( p H 7 . 5 i n H 2O ) . […]

[5] = target: T1, wt-psBBOX; conditions: Km for 2OG; cited from earlier work
[6] = target: T2, psBBOX; assay type: binding, Pseudomonas sp. AK1; conditions: 1H NMR reporter assay; for displacement of GBB and 2OG from the psBBOX active site: wild-type psBBOX; for GBB displacement: titration into psBBOX-Zn(II)-2OG-GBB complex
Text: NMR based reporter BBOX assays, using either Zn^(II) or Mn^(II) (making use of paramagnetic relaxation enhancement (PRE)) to observe ligand binding are reported.[25] These enable monitoring of co/substrate 2OG/γ-butyrobetaine (GBB; 3) psBBOX binding and inform on binding modes of inhibitors, including whether they displace GBB and/or 2OG. We now report ^19F NMR studies on ligand binding to BBOX; the work was initiated following ^1H NMR observations concerning the binding of Mildronate to psBBOX.
Since psBBOX is dimeric[21],[22] (Fig. 1C), these observations led to the proposal that binding of a second molecule of GBB (or Mildronate) to the psBBOX-Zn^(II)-2OG–GBB complex strengthens binding of the first GBB molecule, i.e. there is cooperativity in substrate binding between the monomers of the dimer.

[7] = target: T4, psBBOX*-Zn(II) (Pseudomonas sp., UniProt P80193, Y201C); assay: Protein-observed 19F NMR (PrOF) ligand titrations with psBBOX*; assay type: binding, Pseudomonas sp. AK1; conditions: for effect on the original psBBOX* 19F NMR signal: titration with psBBOX*-Zn(II)
T4 construct: hexa-His tag (pCOLDI) (N); made in house; host or cells: E. coli BL21 (DE3)
Description: NMR materials and methods2 […]
broadening of 20 Hz was applied using MestReNova version 11.0. Spectra were referenced to […]
contained: 100 μM psBBOX* in Tris buffer (50 mM, pH 7.5) and 200 mM NaCl in 90% H2O and […]

[8] = target: T1, wt-psBBOX; assay: Fluoride release assay; assay type: biochemical, Pseudomonas sp. AK1; parameters: N-terminal hexa-His tag (pCOLD I vector); printed for the Y201C variant, inferred for wild type from the pCOLD template (N); made in house; host or cells: Escherichia coli
Description: The combined NMR studies on ligand binding led to the proposal that a new BBOX inhibitor scaffold could be identified by directly incorporating analogues of identified 2OG and GBB binding motifs, comprising appropriately positioned metal chelating and quaternary ammonium moieties, giving a ‘co-substrate/substrate’ mimic. With this in mind, RL190B (8) was synthesised (ESI ^†); it is a relatively potent psBBOX inhibitor (IC50 = 5 μM (fluoride release assay)[31]). […] By contrast with other ligand titrations using psBBOX* such significant line broadening was not observed (e.g. Fig. S11–S13, ESI ^†). Broadening of signals in PrOF NMR is often typical of weaker inhibitors; the significant (and unusual amongst studied compounds) signal attenuation observed with (8) may be a result of its binding in both 2OG and GBB cavities. This may cause changes of conformational mobility/protein destabilisation, potentially yielding a number of indistinct conformational states.
(B) RL190B is a 2OG and substrate mimic. (C) RL190B causes attenuation of the psBBOX* ^19F NMR signal. (D) RL190B inhibition of wt-psBBOX as determined by a fluoride release assay.[31] TEXT PRINTED IN THE PICTURE: (D) RL190B (8): IC50 (psBBOX) = 5 μM

[9] = target: T3, psBBOX-Y201C-BFA (psBBOX*); assay: 1H NMR binding assay with psBBOX-Y201C-BFA (psBBOX*); parameters: species or system Pseudomonas sp. AK1
Description: as §1, §2

[10] = system: hBBOX; conditions: cited from earlier work

T1 sequence (P80193 whole entry): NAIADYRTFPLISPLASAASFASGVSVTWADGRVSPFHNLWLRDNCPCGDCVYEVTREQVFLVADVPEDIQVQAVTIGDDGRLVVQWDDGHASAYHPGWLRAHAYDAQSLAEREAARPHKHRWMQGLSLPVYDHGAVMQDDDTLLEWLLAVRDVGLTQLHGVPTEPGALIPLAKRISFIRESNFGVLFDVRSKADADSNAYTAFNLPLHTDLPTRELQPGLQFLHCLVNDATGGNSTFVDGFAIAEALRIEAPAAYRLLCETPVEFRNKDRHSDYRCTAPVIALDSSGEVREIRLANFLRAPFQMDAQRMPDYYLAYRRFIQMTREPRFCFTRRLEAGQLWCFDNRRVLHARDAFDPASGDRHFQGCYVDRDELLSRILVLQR
T3 sequence (P80193 whole entry Y201C): as the sequence (P80193 whole entry) above, with Y201C counted along it
T4 sequence (P80193 whole entry Y201C): as the sequence (P80193 whole entry) above, with Y201C counted along it

SMILES: [Na+] [Na(I)]
- Tm [1]: 20.5±0.4
- Tm Shift [1]: 0.2±0.1 °C

SMILES: [Co+2] [Co(II)]
- Tm [1]: 6.6±2.2
- Tm Shift [1]: 15.7±0.8 °C

SMILES: O=C(N[C@@H](Cc1c[nH]c2ccccc12)C(=O)O)c1nc(Cl)c2ccccc2c1O [compound 5]
- IC50 [2]: 0.9 µM

SMILES: [Zn+2] [Zn(II)]
- Tm [1]: 6.6±0.7
- Tm Shift [1]: 12.8±1.3 °C

SMILES: C[P+](C)(C)CCCC(=O)[O-] [P-GBB]
- substrate for psBBOX [3]: substrates

SMILES: O=C(N[C@@H](CSCc1ccccn1)C(=O)O)c1ncccc1O [AR692B]
- IC50 [4]: 245 µM

SMILES: O=C(O)CCC(=O)C(=O)O [2OG, 2-oxoglutarate]
- Km [5]: 532 µM

SMILES: [Ni+2] [Ni(II)]
- Tm [1]: 12.3±0.2
- Tm Shift [1]: 18.1±0.1 °C

SMILES: [Fe+2] [Fe(II)]
- Tm Shift [1]: 8.4±0.7 °C

SMILES: C[N+](C)(C)CCCCN(O)C(=O)/C=C/C(=O)O [RL190B, (E)-4-(3-Carboxy-N-hydroxyacrylamido)-N,N,N-trimethylbutan-1-aminium]
- displacement of GBB and 2OG from the psBBOX active site [6]: displaces both GBB and 2OG
- displacement of GBB and 2OG from the psBBOX active site ([6]; listed as 8): displace both GBB and 2OG
- IC50 [4]: 15 µM
- effect on the original psBBOX* 19F NMR signal [7]: attenuation
- effect on the original psBBOX* 19F NMR signal ([7]; listed as 8): significant broadening and almost complete attenuation
- IC50 [8]: 5 µM

SMILES: [K+] [K(I)]
- Tm Shift [1]: 0.0±0.1 °C

SMILES: [Mg+2] [Mg(II)]
- Tm [1]: 20.1±0.2
- Tm Shift [1]: 0.0±0.1 °C

SMILES: [Cu+2] [Cu(II)]
- Tm [1]: 6.3±0.5
- Tm Shift [1]: 12.4±1.1 °C

SMILES: C[N+](C)(C)NCCC(=O)[O-] [Mildronate, reference compound]
- GBB displacement [6]: ≤ 60%
- GBB displacement ([6]; listed as 4): ~60%
- inhibition of psBBOX* catalysed GBB turnover ([4]; 1H NMR, 2.5 μM psBBOX*, 100 μM Fe(II), 200 μM GBB, 600 μM 2OG): unable to detect inhibition
- Kd [9]: 12.3 ± 1 µM
- change of 19F NMR spectrum on addition to psBBOX*-Zn(II)-GBB-2OG ([7]; psBBOX*-Zn(II)-GBB-2OG): does not change; also recorded: did not manifest detectable changes
- IC50 [10]: 34 to 60 µM

SMILES: [Mn+2] [Mn(II)]
- Tm [1]: 17.7±1.4
- Tm Shift [1]: 1.3±0.2 °C
